Results reported in US12638448B2, “Compositions, methods, and kits for detection of lipolytic activity” (priority 2019, dated 2026).
Where “and” joins values, the source holds several entries; their conditions need not be identical. Equal entries are not always repeated.

Tests used:
[1] = 4MuO auto-hydrolysis (no enzyme), 4Mu fluorescence; type: physicochemical
[2] = target: T1, porcine pancreatic lipase (PPL) (Sus scrofa, UniProt P00591); experiment: 4MuO lipase assay with HCMB, sample containing PPL (Examples 1B-6B, 10); type: biochemical
T1 construct: purchased Sigma; host or cells: porcine pancreas
T1 sequence (P00591 1-450): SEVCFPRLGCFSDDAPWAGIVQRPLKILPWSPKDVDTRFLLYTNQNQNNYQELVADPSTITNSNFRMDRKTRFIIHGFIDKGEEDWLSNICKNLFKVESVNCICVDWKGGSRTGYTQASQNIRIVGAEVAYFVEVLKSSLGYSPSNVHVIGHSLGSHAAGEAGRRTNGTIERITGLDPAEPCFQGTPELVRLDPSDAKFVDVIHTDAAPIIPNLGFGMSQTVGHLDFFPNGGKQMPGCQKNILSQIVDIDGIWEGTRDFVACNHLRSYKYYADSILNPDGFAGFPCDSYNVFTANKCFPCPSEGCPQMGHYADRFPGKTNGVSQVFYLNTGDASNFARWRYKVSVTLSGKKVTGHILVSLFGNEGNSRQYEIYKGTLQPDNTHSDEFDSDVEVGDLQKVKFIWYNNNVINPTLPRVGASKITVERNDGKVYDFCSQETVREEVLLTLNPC

[3] = target: T2, Porcine pancreas lipase (PPL) (Sus scrofa, UniProt P00591); experiment: 4MuO lipase assay with porcine pancreas lipase (Examples 1A-7); conditions: for concentration at which product inhibition of lipase activity was observed: 800 nM PPL
T2 sequence (P00591 1-450): T1 sequence (P00591 1-450)

[4] = test system: cell culture harvest fluid (CCHF) containing a mixture of lipases; type: biochemical, CHO cell line; conditions: negative controls, 30 min pre-incubation, 10 mg/mL mAb1, 0.02% PS80, 0.5% CCHF
[5] = test system: LipC12 lipase; conditions: as solvent; cited from earlier work
[6] = cited from earlier work
[7] = as organic solvent of the assay
[8] = 10.4 mM TRIS pH 8.1, 500 nM PPL, 22 hours

With `[Ca+2].[Cl-].[Cl-]` [CaCl2, calcium chloride] the “Auto-Hydrolysis (AH)” value ([1]; 0.104 mM CaCl2) was 0.15 µM, the “Auto-Hydrolysis (AH)” value ([1]; 1.04 mM CaCl2) was 0.16 µM and the “Auto-Hydrolysis (AH)” value ([1]; 10.4 mM CaCl2) was 0.16 µM. For the same molecule, the “PPL activity (in words)” value ([2]; highest concentration tested (52 mM CaCl2 in HCMB)) was “slightly decreased”, the “Enzymatic Hydrolysis (EH − AH)” value ([3]; 0.104 mM CaCl2, 500 nM PPL) was 0.66 µM and the “Total Hydrolysis (AH + EH)” value ([3]; 0.104 mM CaCl2, 500 nM PPL) was 0.81 µM. The “Enzymatic Hydrolysis (EH − AH)” value ([3]; 1.04 mM CaCl2, 500 nM PPL) was 0.73 µM, the “Total Hydrolysis (AH + EH)” value ([3]; 1.04 mM CaCl2, 500 nM PPL) was 0.90 µM and the “Enzymatic Hydrolysis (EH − AH)” value ([3]; 10.4 mM CaCl2, 500 nM PPL) was 0.69 µM. For the same molecule, the “Total Hydrolysis (AH + EH)” value ([3]; 10.4 mM CaCl2, 500 nM PPL) was 0.85 µM.

With `CCCCCCCC/C=C\CCCCCCCC(=O)Oc1ccc2c(C)cc(=O)oc2c1` [4MuO, 4-methylumbelliferyl oleate, reference compound] the “factor by which autohydrolysis (AH) decreased” value ([1]; lowering the pH from 8 to 6 (TRIS / BIS-TRIS)) was about 5.

In the case of `CCCCCCCCCCC[C@@H](C[C@@H]1OC(=O)[C@H]1CCCCCC)OC(=O)[C@H](CC(C)C)NC=O` [orlistat, (S)-2-formylamino-4-methyl-pentanoic acid (S)-1-[[(2S,3S)-3-hexyl-4-oxo-2-oxetanyl]methyl]-dodecyl ester, reference compound], the inhibition at 25 µM ([2]; 25 μM, 30 min pre-incubation, 0.0335 mg/mL PPL, read-out: reduction of enzyme activity in pre-treated sample compared to co-addition of substrate and inhibitor) is reported as about 50%, the “PPL activity in protein-containing formulation (in words)” value ([2]; negative controls, 30 min pre-incubation, 10 mg/mL mAb1, 0.02% PS80, 0.025 mg/mL PPL) is reported as “inhibited” and the “CCHF lipase activity in protein-containing formulation (in words)” value [4] is reported as “inhibited”. The “lipolytic activity (in words)” value ([3]; pre-treatment (30 minutes) at 25 μM, 500 nM PPL) was “completely abolished”.

With `CC(C)O` [IPA, isopropanol] the “Auto-Hydrolysis (AH)” value [1, 7] was 0.09 µM.

With `[Cl-].[Na+]` [NaCl, sodium chloride] the “Auto-Hydrolysis (AH)” value ([1]; 40 mM NaCl) was 0.25 µM, the “Auto-Hydrolysis (AH)” value ([1]; 120 mM NaCl) was 0.29 µM and the “Auto-Hydrolysis (AH)” value ([1]; 360 mM NaCl) was 0.28 µM. For the same molecule, the “PPL activity (in words)” value ([2]; highest concentration tested (1800 mM NaCl in HCMB)) was “slightly decreased”, the “Enzymatic Hydrolysis (EH − AH)” value ([3]; 40 mM NaCl, 500 nM PPL) was 0.57 µM and the “Total Hydrolysis (AH + EH)” value ([3]; 40 mM NaCl, 500 nM PPL) was 0.82 µM. For the same molecule, the “Enzymatic Hydrolysis (EH − AH)” value ([3]; 120 mM NaCl, 500 nM PPL) was 0.62 µM, the “Total Hydrolysis (AH + EH)” value ([3]; 120 mM NaCl, 500 nM PPL) was 0.91 µM and the “Enzymatic Hydrolysis (EH − AH)” value ([3]; 360 mM NaCl, 500 nM PPL) was 0.59 µM. For the same molecule, the “Total Hydrolysis (AH + EH)” value ([3]; 360 mM NaCl, 500 nM PPL) was 0.86 µM.

In the case of `CO` [MeOH, methanol], the “Auto-Hydrolysis (AH)” value [1, 7] is given as 0.13 µM and the “factor of increase of LipC12 lipase activity” value [5] is given as over 10.

For `CCCCCCCC/C=C\CCCCCCCC(=O)O` [Oleic Acid, oleic acid, reference compound], the “Auto-Hydrolysis (AH)” value ([1]; 7.8 μM Oleic Acid (0.001% PS80 theoretically fully degraded)) was 0.11 µM, the “Auto-Hydrolysis (AH)” value ([1]; 780 μM Oleic Acid (0.1% PS80 theoretically fully degraded)) was 0.06 µM and the “concentration at which product inhibition of lipase activity was observed” value [3] was 780 µM.

In the case of `Cc1cc(=O)oc2cc(O)ccc12` [4Mu, 4-methylumbelliferone], the pKa [6] is given as “approximately 7.7”.

For `OCCN(CCO)C(CO)(CO)CO` [BIS-TRIS], the “Auto-Hydrolysis (AH)” value ([1]; pH 6) was 0.16 µM and 0.13 µM and 0.11 µM.

In the case of `NC(CO)(CO)CO` [TRIS], the “Auto-Hydrolysis (AH)” value ([1]; 10.4 mM TRIS pH 8.1, 22 hours) is reported as 0.22 µM, the “Enzymatic Hydrolysis (EH − AH)” value [3, 8] is reported as 1.29 µM and the “Total Hydrolysis (AH + EH)” value [3, 8] is reported as 1.51 µM.

With `CCCCCCCCCCCC(=O)O` [Lauric Acid, lauric acid, reference compound] the “Auto-Hydrolysis (AH)” value ([1]; 8.5 μM Lauric Acid (0.001% PS20 theoretically fully degraded)) was 0.15 µM, the “Auto-Hydrolysis (AH)” value ([1]; 850 μM Lauric Acid (0.1% PS20 theoretically fully degraded)) was 0.08 µM and the “concentration at which product inhibition of lipase activity was observed” value [3] was “above 8.5 μM”.

For `C[S+](C)[O-]` [DMSO, dimethyl sulfoxide], the “Auto-Hydrolysis (AH)” value [1, 7] was 0.14 µM.
